Laboratory results published in ChEMBL document CHEMBL1131277, “Functionalized 1,3-teraryls as a new class of hepatoprotectants. Part V” (1998).

Experiments:
Format in all cases: functional
Rattus norvegicus [1] = species on record: Rattus norvegicus; assay: Percent protection afforded by the compound in serum glutamate pyruvate transaminase (GPT) level was determined; parameters: concentration or dose not given beside the values
Rattus norvegicus [2] = species on record: Rattus norvegicus; assay: Percent protection afforded by the compound in serum glutamate oxaloacetate transaminase (GOT) level was determined; parameters: concentration or dose not given beside the values
Rattus norvegicus [3] = assay: Hepatoprotective activity against thioacetamide-induced toxicity in various levels of serum GOT in rats was evaluated at 10 mg/kg dose (p.o. x 7 days)
Rattus norvegicus [4] = assay: Hepatoprotective activity against thioacetamide-induced toxicity in various levels of serum ALP in rats was evaluated at 10 mg/kg dose (p.o. x 7 days)
Rattus norvegicus [5] = assay: Hepatoprotective activity against thioacetamide-induced toxicity in various levels of serum GPT in rats was evaluated at 10 mg/kg dose (p.o. x 7 days)
Rattus norvegicus [6] = species on record: Rattus norvegicus; assay: Percent protection afforded by the compound in serum alkaline phosphatase (APL) level was determined; parameters: concentration or dose not given beside the values

Row | Compound | Protection (Rattus norvegicus [1]) | Protection (Rattus norvegicus [2]) | Enzyme level (Rattus norvegicus [3]; route oral) | Enzyme level (Rattus norvegicus [4]; route oral) | Enzyme level (Rattus norvegicus [5]; route oral) | Protection (Rattus norvegicus [6]) | Enzyme level (Rattus norvegicus [3]) | Enzyme level (Rattus norvegicus [4]) | Enzyme level (Rattus norvegicus [5])
1 | COC(=O)c1c(SC)cc(-c2ccc(Cl)cc2)cc1-c1ccc([N+](=O)[O-])cc1 | 44% | 5% | 229.4 U l-1 | 289.9 U l-1 | 270.4 U l-1 | 24% |  |  | 
2 | COC(=O)c1c(SC)cc(-c2ccc(F)cc2)cc1-c1ccc(F)cc1 | 12% | 5% | 229.1 U l-1 | 341.2 U l-1 | 370.2 U l-1 | 3% |  |  | 
3 | COC(=O)c1c(SC)cc(-c2ccc(F)c(Cl)c2)cc1-c1cccc([N+](=O)[O-])c1 | 12% | 18% | 211.6 U l-1 | 304.1 U l-1 | 370.2 U l-1 | 18% |  |  | 
4 | COC(=O)c1c(SC)cc(-c2ccc(Cl)cc2)cc1-c1ccc(Cl)cc1 | 51% | 37% | 186.3 U l-1 | 268.2 U l-1 | 248.5 U l-1 | 33% |  |  | 
5 | COC(=O)c1c(SC)cc(-c2ccc(F)cc2)cc1-c1ccc(Cl)c(Cl)c1 | 71% | 57% | 159.3 U l-1 | 235.5 U l-1 | 186.3 U l-1 | 46% |  |  | 
6 | COC(=O)c1c(SC)cc(-c2ccc(F)cc2)cc1-c1cccc([N+](=O)[O-])c1 | 15% | 20% | 208.9 U l-1 | 307.2 U l-1 | 360.1 U l-1 | 17% |  |  | 
7 | COC(=O)c1c(SC)cc(-c2ccc(Cl)cc2)cc1-c1ccc(Cl)c(Cl)c1 | 49% | 66% | 147.3 U l-1 | 245.1 U l-1 | 258.1 U l-1 | 42% |  |  | 
8 | COC(=O)c1c(SC)cc(-c2ccc(Cl)cc2)cc1-c1cccc([N+](=O)[O-])c1 | 70% | 64% | 149.9 U l-1 | 203.6 U l-1 | 190.1 U l-1 | 60% |  |  | 
9 | COC(=O)c1c(SC)cc(-c2ccc(Cl)cc2)cc1-c1ccc(Br)cc1 | 15% | 20% | 208.3 U l-1 | 330.2 U l-1 | 361.5 U l-1 | 8% |  |  | 
10 | COC(=O)c1c(SC)cc(-c2ccc(Br)cc2)cc1-c1ccc(Br)cc1 | 36% | 25% | 202.1 U l-1 | 324.2 U l-1 | 295.4 U l-1 | 10% |  |  | 
11 | SILYMARIN | 61% | 64% |  |  |  | 52% | 150 U l-1 | 220 U l-1 | 218 U l-1
12 | COC(=O)c1c(SC)cc(-c2ccc(Cl)cc2)cc1-c1ccc(F)cc1 | 5% | 10% | 222.3 U l-1 | 334.2 U l-1 | 392.3 U l-1 | 6% |  |  | 
